From ChEMBL document CHEMBL1201862, “PubChem BioAssay data set” (2004)
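Assay format: 96-well plates, 48-hour exposure. GI50 is the concentration that inhibits growth by half.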 Activity calls are given as the source filed them. Cut-off read from the data, not from the text of the source: active = GI50 up to about 1.1 µM and inactive = higher.

What was measured:
Assay in all cases: growth of human tumour cells (NCI), 48 h
RXF 393 = system: RXF 393
UACC-62 = system: UACC-62
A498 = system: A498
NCI-H460 = system: NCI-H460
OVCAR-5 = system: OVCAR-5
COLO 205 = system: COLO 205
Malme-3M = system: Malme-3M
UO-31 = system: UO-31
NCI-H226 = system: NCI-H226
XF498 = system: XF498
SK-OV-3 = system: SK-OV-3
RPMI-8226 = system: RPMI-8226
SK-MEL-2 = system: SK-MEL-2
SF-295 = system: SF-295
IGROV-1 = system: IGROV-1
SR = system: SR

Measured: GI50

CCCCCN(CCCCC)C(=O)[C@@H](CCC(=O)O)NC(=O)c1cc2ccccc2[nH]1
inactive: RXF 393 1.99 µM | UACC-62 20.7 µM | A498 > 100 µM | NCI-H460 34.4 µM | OVCAR-5 > 100 µM | COLO 205 30.9 µM | Malme-3M 35.4 µM | UO-31 21.4 µM | NCI-H226 37.3 µM | XF498 26 µM | SK-OV-3 65.2 µM | RPMI-8226 16 µM | SK-MEL-2 27.7 µM | SF-295 33.9 µM | IGROV-1 44 µM

O=C1CNC(=O)c2[nH]cnc2N1
inactive: RXF 393 > 100 µM | UACC-62 > 100 µM | A498 > 100 µM | NCI-H460 > 100 µM | OVCAR-5 > 100 µM | COLO 205 > 100 µM | Malme-3M > 100 µM | UO-31 > 100 µM | NCI-H226 > 100 µM | SR > 100 µM | XF498 49.3 µM | SK-OV-3 > 100 µM | RPMI-8226 > 100 µM | SF-295 > 100 µM | IGROV-1 > 100 µM

O=C(CC1(O)C(=O)Nc2c(Cl)ccc(Cl)c21)c1ccc2ccccc2c1 (stereo unspecified)
inactive: RXF 393 11.6 µM | UACC-62 3.24 µM | A498 16.3 µM | NCI-H460 9.2 µM | OVCAR-5 17.3 µM | COLO 205 14.9 µM | Malme-3M 12.5 µM | UO-31 18.1 µM | NCI-H226 19.2 µM | SR 3.21 µM | XF498 12.6 µM | SK-OV-3 11.9 µM | RPMI-8226 6.75 µM | SK-MEL-2 11.6 µM | SF-295 4.92 µM | IGROV-1 14.3 µM

COc1cc(CCC(=O)NS(=O)(=O)c2ccccc2)cc(OC)c1OC
inactive: RXF 393 > 100 µM | UACC-62 > 100 µM | A498 > 100 µM | NCI-H460 > 100 µM | OVCAR-5 > 100 µM | COLO 205 > 100 µM | Malme-3M > 100 µM | UO-31 > 100 µM | NCI-H226 > 100 µM | SR > 100 µM | XF498 > 100 µM | SK-OV-3 > 100 µM | RPMI-8226 > 100 µM | SK-MEL-2 > 100 µM | SF-295 > 100 µM | IGROV-1 > 100 µM

CS(=O)(=O)OCCN1CCN(C(=O)c2cccc3c(Nc4ccc(S(=O)(=O)N=C(N)N)cc4)c4ccccc4nc23)CC1
inactive: RXF 393 > 100 µM | UACC-62 > 100 µM | A498 > 100 µM | NCI-H460 > 100 µM | OVCAR-5 > 100 µM | COLO 205 > 100 µM | Malme-3M > 100 µM | UO-31 > 100 µM | NCI-H226 > 100 µM | XF498 > 100 µM | SK-OV-3 > 100 µM | RPMI-8226 > 100 µM | SK-MEL-2 > 10 µM | SF-295 > 100 µM | IGROV-1 > 100 µM

O=c1ncccn1[C@@H]1O[C@H](CO)[C@H](O)C1O (stereo partly specified)
inactive: RXF 393 80.9 µM | UACC-62 > 99.5 µM | A498 > 100 µM | NCI-H460 47.9 µM | OVCAR-5 > 100 µM | COLO 205 > 88.7 µM | Malme-3M > 100 µM | UO-31 > 100 µM | NCI-H226 > 100 µM | SR 43.6 µM | XF498 > 100 µM | SK-OV-3 > 100 µM | RPMI-8226 > 74.5 µM | SK-MEL-2 > 73.5 µM | SF-295 > 100 µM | IGROV-1 > 100 µM

COC(=O)C1=C(C(=O)OC)N(C(C)C)[C@H]2C(C(=O)OC)=C(C(=O)OC)N(C(C)C)[C@@H]12
inactive: RXF 393 > 100 µM | UACC-62 > 100 µM | A498 > 100 µM | NCI-H460 > 100 µM | OVCAR-5 > 100 µM | COLO 205 > 100 µM | Malme-3M > 100 µM | UO-31 > 100 µM | NCI-H226 > 100 µM | SR 48 µM | XF498 > 100 µM | SK-OV-3 > 100 µM | RPMI-8226 84.1 µM | SK-MEL-2 > 100 µM | SF-295 > 100 µM | IGROV-1 > 100 µM

Cc1ccc(S(=O)(=O)N/N=C(\c2nc3ccc([N+](=O)[O-])cc3[nH]c2=O)C(O)c2ccc([N+](=O)[O-])cc2)cc1 (stereo unspecified)
inactive: RXF 393 > 100 µM | UACC-62 85.5 µM | A498 > 100 µM | NCI-H460 55.2 µM | OVCAR-5 67.1 µM | COLO 205 > 100 µM | Malme-3M > 100 µM | UO-31 56.9 µM | XF498 > 100 µM | SK-OV-3 > 100 µM | RPMI-8226 21.6 µM | SK-MEL-2 > 100 µM | SF-295 > 100 µM | IGROV-1 > 100 µM

COC1=CC(=O)c2ccc(C(C)C)cc2C1(C)C1=NC(C)(C)CO1 (stereo unspecified)
inactive: RXF 393 > 100 µM | UACC-62 > 100 µM | NCI-H460 > 100 µM | COLO 205 > 100 µM | Malme-3M > 100 µM | UO-31 > 100 µM | NCI-H226 > 100 µM | SR 86.3 µM | XF498 > 100 µM | SK-OV-3 > 100 µM | RPMI-8226 41.4 µM | SK-MEL-2 > 100 µM | SF-295 > 100 µM | IGROV-1 > 100 µM

CC(=O)NC(CCCCNC(=O)N(C)N=O)C(=O)NCc1ccccc1 (stereo unspecified)
inactive: RXF 393 > 100 µM | UACC-62 > 100 µM | A498 > 100 µM | NCI-H460 79.6 µM | OVCAR-5 > 100 µM | COLO 205 > 100 µM | Malme-3M > 100 µM | UO-31 > 100 µM | NCI-H226 > 100 µM | XF498 > 100 µM | SK-OV-3 > 100 µM | RPMI-8226 > 100 µM | SK-MEL-2 > 100 µM | SF-295 > 100 µM | IGROV-1 > 100 µM

[O-][Cl+3]([O-])([O-])[O-].c1ccc(-c2csc3c4ccccc4c4ccccc4[n+]23)cc1
inactive: RXF 393 13 µM | UACC-62 1.88 µM | A498 14.8 µM | NCI-H460 2.51 µM | OVCAR-5 14.3 µM | COLO 205 2.25 µM | Malme-3M 1.58 µM | UO-31 10.7 µM | NCI-H226 3.1 µM | SR 4.99 µM | XF498 1.79 µM | SK-OV-3 13.9 µM | RPMI-8226 4.55 µM | SK-MEL-2 2.54 µM | SF-295 1.14 µM | IGROV-1 3.95 µM

COC(=O)C(Cc1nc2ccc(Cl)cc2nc1O)C(=O)C(=O)Nc1cc(C)ccc1C (stereo unspecified)
inactive: RXF 393 > 100 µM | UACC-62 > 100 µM | A498 > 100 µM | NCI-H460 > 100 µM | OVCAR-5 > 100 µM | COLO 205 > 100 µM | Malme-3M > 100 µM | UO-31 > 100 µM | NCI-H226 > 100 µM | SR > 100 µM | XF498 > 100 µM | SK-OV-3 > 100 µM | RPMI-8226 > 100 µM | SK-MEL-2 > 100 µM | SF-295 > 100 µM | IGROV-1 > 100 µM

CC(=O)Nc1[nH]c(=O)[nH]c(=O)c1N(C(C)=O)C(C)=O
inactive: RXF 393 > 100 µM | UACC-62 > 100 µM | A498 > 100 µM | NCI-H460 > 100 µM | OVCAR-5 > 100 µM | COLO 205 > 100 µM | Malme-3M > 100 µM | UO-31 > 100 µM | NCI-H226 > 100 µM | XF498 > 100 µM | RPMI-8226 > 100 µM | SK-MEL-2 > 100 µM | SF-295 > 100 µM | IGROV-1 > 100 µM

Clc1cc(Cl)cc(Nc2nc3ccccc3nc2-c2cccs2)c1
inactive: RXF 393 17.1 µM | UACC-62 > 10 µM | NCI-H460 14.3 µM | OVCAR-5 83.4 µM | COLO 205 7.23 µM | Malme-3M 39 µM | UO-31 42.6 µM | NCI-H226 40 µM | SR 51.2 µM | XF498 28.1 µM | SK-OV-3 31.3 µM | RPMI-8226 40 µM | SK-MEL-2 > 100 µM | SF-295 22.1 µM

C=CCC1=C2CCCCC2CCC1=O (stereo unspecified)
inactive: RXF 393 > 100 µM | UACC-62 > 100 µM | A498 > 100 µM | NCI-H460 > 100 µM | OVCAR-5 > 100 µM | COLO 205 > 100 µM | Malme-3M > 100 µM | UO-31 > 100 µM | XF498 > 100 µM | SK-OV-3 > 100 µM | RPMI-8226 > 100 µM | SK-MEL-2 > 100 µM | SF-295 > 100 µM | IGROV-1 > 100 µM

C=C(C)C1CC=C(C)C(O)([C@@]2(O)C[C@H](C(=C)C)CC=C2C)C1 (stereo partly specified)
inactive: RXF 393 13.7 µM | UACC-62 19.8 µM | A498 23.8 µM | NCI-H460 18 µM | OVCAR-5 24.5 µM | Malme-3M 22.8 µM | UO-31 28.4 µM | NCI-H226 > 10 µM | SR 21.7 µM | XF498 14 µM | SK-OV-3 27.2 µM | RPMI-8226 20.5 µM | SK-MEL-2 17.4 µM | SF-295 18.9 µM | IGROV-1 16.6 µM

C=C(C)C1C/C=C(/C)CCCC2(CCC3=C(CC(C(=C)C)C/C=C(/C)CCC3)O2)C(=O)C1 (stereo unspecified)
inactive: RXF 393 > 100 µM | UACC-62 > 100 µM | A498 > 100 µM | NCI-H460 > 100 µM | COLO 205 > 100 µM | Malme-3M > 100 µM | UO-31 > 100 µM | NCI-H226 > 100 µM | SR > 100 µM | XF498 > 100 µM | SK-OV-3 > 100 µM | RPMI-8226 > 100 µM | SK-MEL-2 > 100 µM | SF-295 > 100 µM | IGROV-1 > 100 µM
